Laboratory results taken from patent US20120322060A1, “DIAGNOSIS AND MONITORING TREATMENT OF PSYCHIATRIC DISEASES WITH SPADIN AND RELATED METHODS” (CENTRE NATIONAL DE LE RECHERCHE SCIENTIFIQUE - CNRS -, priority 2011, published 2012).
No end group written: not given here.

What was measured:
DRN 5-HT neurons = test: Extracellular unitary recordings of DRN 5-HT neurons in mice; type: in vivo, mouse; conditions: 10^-5 M in 100 μl bolus i.p.
Description: As previously described, single-barreled glass micropipettes (recording electrodes) were filled with a 2 M NaCl solution saturated with Fast Green FCF, resulting in an impedance of 2-5 MΩ. Mice were anaesthetized with chloral hydrate (400 mg/kg, i.p., using a 2% solution), and placed in a stereotaxic frame equipped with the Stoelting “just for mouse” adaptor. Electrodes were positioned 0.5-1 mm posterior to the interaural line on the midline, and were then lowered into the DRN, usually attained at a depth of 2.5 mm from the brain surface. 5-HT neurons were then encountered over a maximal distance of 1 mm. They were identified using the following criteria: a slow (0.5-2.5 Hz) and regular firing rate and long-duration (0.8-1.2 ms) action potentials, with a positive-negative spike. Spikes were computed by using the Spike 2 software, so that the firing rate was calculated as the mean number of events occurring within a 10 s period. For each neuron, the discharge was monitored during 60 seconds. Each mouse received either spadin (10^−5 M in a 100 μl bolus) or its vehicle (saline). Starting 30 min after the injection, 3 to 4 successive descents were performed along the DRN, for a total of 4-8 cells recorded per animal. Recordings were performed for a maximal duration of 4 hours post-injection.

mice [1] = test: Tail Suspension Test (TST); type: in vivo, mouse
Description: Mice were suspended by the tail. […] The immobility time was recorded during a 6 min test session.

CREB = test: Total CREB and pCREB Western blotting of hippocampus; type: in vivo, mouse; conditions: 4-day treatment, i.p. 10^-5 M, hippocampus extracts
Description: Mouse brains were dissected on ice. Isolated hippocampi (1-2 mg wet tissue/100 μl) were homogenized in a solubilization buffer containing 20 mM HEPES (pH:7.9), 0.4 M NaCl, 20% (v/v) glycerol, 1% (v/v) Nonidet P-40, 5 mM MgCl2, 0.5 mM EDTA, 0.1 mM EGTA and protease inhibitor cocktail using a dounce homogenizer. The homogenates were centrifuged 30 min at 15,000×g at 4° C. Supernatants were stored at −70° C. until further use. Protein concentrations were measured using conventional Bradford's method. Samples ([…] proteins from each experimental group) were resuspended in SDS buffer, sonicated, boiled for 5 min before loading on 10% SDS PAGE gels and electrophoresed for 2 hours at 60 mA. Proteins were then transferred from gels onto Hybond-PVDF membranes (Amersham Biosciences) in blotting buffer (156 mM Tris, 1 M glycine, PBS) for 90 min at 80 mA and blocked with 5% skim milk (Regilait) in PBS for 2 hours at room temperature. […] Total CREB or tubulin contents were determined after stripping by using 1/1000 dilution of anti-CREB antibody (Cell Signaling Technology) and 1/1000 dilution of anti-tubulin antibody (Sigma-Aldrich). […] Relative intensities of the labeled bands were analyzed by densitometric scanning using Image) imaging system. CREB activation was expressed as the ratio between pCREB and total CREB present in each sample.

TREK-1 = target: T1, TREK-1 (Mus musculus, UniProt P97438); test: Whole-cell patch-clamp on CA3 pyramidal neurons in hippocampus brain slices; type: cell-based; design: a cellular network that endogenously expresses both TREK-1 and NTSR3/Sortilin; from tissue; host or cells: mouse hippocampal brain slices, CA3 pyramidal neurons; conditions: CA3 neurons of kcnk2-/- mice
T1 sequence (P97438 1-426): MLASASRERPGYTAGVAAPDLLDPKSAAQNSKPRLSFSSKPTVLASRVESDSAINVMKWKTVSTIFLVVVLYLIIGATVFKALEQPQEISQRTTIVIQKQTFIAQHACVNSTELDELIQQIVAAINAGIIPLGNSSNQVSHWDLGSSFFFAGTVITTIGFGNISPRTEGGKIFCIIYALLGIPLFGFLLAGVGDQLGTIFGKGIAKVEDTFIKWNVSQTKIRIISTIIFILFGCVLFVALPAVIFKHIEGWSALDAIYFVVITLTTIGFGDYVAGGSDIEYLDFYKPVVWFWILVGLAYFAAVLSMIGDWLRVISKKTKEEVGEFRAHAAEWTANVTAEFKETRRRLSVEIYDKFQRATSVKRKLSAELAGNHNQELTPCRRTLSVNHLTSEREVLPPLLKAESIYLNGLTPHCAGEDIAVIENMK

[2] = in vivo
Description: Since spadin exerted efficient effects after i.p. or i.v. administration, we evaluated its ability to pass through the blood-brain barrier. ^125I-labelled spadin (1 nmol of spadin plus 2×10^6 cpm ^125I-spadin) was i.v. injected and animals were sacrificed 30 min following injection. The brains were rapidly removed and homogenized. The radioactivity recovered in the brain was acid-extracted, quantified and analyzed by HPLC. […] The concentration of spadin recovered into the brain was estimated to stand around 10 nM, a concentration that corresponds to the affinity of spadin for TREK-1 and sufficient to be active on TREK-1 channel activity. This value was also in the same range of the IC50 determined by electrophysiological measurements (FIG. 3C).

mice [3] = test: Porsolt Forced Swim Test (FST) in mice; type: in vivo, mouse; conditions: for reduced immobility time: acute, 30 min before test
Description: Mice (Janvier, France) were placed individually in cylinders (height: 30 cm, diameter: 15 cm) filled with 12 cm deep water (temperature: 22±1° C.) for 6 min. The total period of immobility was recorded during the last 4 min.

mice [4] = test: Light/dark exploration; type: in vivo, mouse; conditions: spadin i.p. 10^-5 M, diazepam i.p. 0.5 mg/kg
Description: The apparatus consisted of a cage (25×40×20 cm) divided into two compartments by a black partition containing a small opening that allows mouse to move from one compartment to the other. One compartment, comprising […] of the surface area, was made of white plastic and was brightly illuminated. The adjoining smaller compartment was black and dark. Mice were placed in the white compartment and allowed to move freely between the two chambers for 5 minutes. The number of transitions between the two compartments, time spent in the white chamber, and latency to the first transition were recorded. Mice tend to avoid the white compartment. Thus the measures of exploration in this area (time and entrances) were used as experimental indices of anxiety.

[5] = subchronic, 4 days, spadin i.v. 10^-6 M, fluoxetine 3 mg/kg

APLPRWSGPIGVSWGLR [spadin]
increase of DRN 5-HT neuron firing rate versus vehicle (DRN 5-HT neurons): 146%
mean firing rate of DRN 5-HT neurons (DRN 5-HT neurons): 3.1±0.7 Hz
immobility times versus saline (mice [1]; acute, i.v., 10^-6 M, 30 min before test): significantly reduced immobility times
effect in TST (mice [1]; injection in kcnk2-/- mice): did not induce any change
reduction of time spent immobile (mice [1]; [5]): 28.1%
stimulation of pCREB (quantification of blots) (CREB): 4 fold
inhibitory effect on arachidonic acid-induced current (TREK-1): totally absent
amount of spadin recovered in the brain [2]: Identical amounts
reduced immobility time (mice [3]; i.c.v., 10^-7 M): 66.8%
reduced immobility time (mice [3]; i.p., 10^-8 M): 55.30%
reduced immobility time (mice [3]; i.v., 10^-6 M): 62.9%
reduction of time of immobility (mice [3]; chronic, 15 days, spadin 10^-6 M, fluoxetine 1 mg/kg): around 30%
effect in FST (mice [3]; injection in kcnk2-/- mice): did not induce any change
reduction of time spent immobile (mice [3]; [5]): 43.2%
number of light/dark transitions (mice [4]): did not make more transitions
